Data: patent US8748480B2, “Methods for treating opioid tolerance” (priority 2005, dated 2014)
Where two headings read alike, the source gives them in different places. No end group written: not given here.

Legend:
[1] = system: fMLP-dependent ERK activation; assay: fMLP-dependent ERK activation; assay type: cell-based
[2] = target: T1, Gβγ (protein interaction site of Gβ) (Rattus norvegicus, UniProt P54311); assay: Phage ELISA: small molecules competing with SIGK-phage binding to immobilized biotinylated Gβγ
T1 construct: made in house; host or cells: Sf9 insect cells (baculovirus), co-expressed with BirA and (His)6-Gαi1
Experimental: Exemplary compounds of the present invention were initially selected from a computational screen to identify ligands that bind to the novel protein interaction site of Gβ. The computational screen involved using SYBYL molecular modeling software to model the protein interaction site of Gβ as determined in the X-ray structure disclosed herein. The computational docking screen was performed with the National Cancer Institute 1900 compound library wherein the compounds were tested for docking to the protein interaction site of Gβ using FLEXX™ (Tripos, Inc., St. Louis, Mo.) for docking and CSCORE™ (Tripos, Inc.) to evaluate the energetics and fitness of the docked structure. Algorithm-dependent lists of compounds, predicted to interact with the protein interaction site of Gβ and the structural model of the interaction, were generated. Selected compounds were subsequently analyzed in the phage ELISA binding assay disclosed herein to assess whether these compounds could bind to the protein interaction site of Gβ and interfere with protein interactions at this surface.
Wild-type Gβ1 and Gβ1 mutants were made in the baculovirus vector PDW464 which encodes a biotinylation site at a lysine upstream of the amino terminus of Gβ1 (Goubaeva, et al. (2003) supra). Mutants were generated by overlap extension PCR using standard protocols. The wild-type and mutant Gβ1 constructs consisted of a 20 amino acid biotin acceptor peptide (BAP) sequence fused in-frame with the amino-terminus of rat Gβ1 subunit. When coexpressed with biotin holoenzyme synthetase (BirA) in Sf9 cells, the Gβ1 subunit becomes covalently biotinylated in vivo at the Specific lysine acceptor residue in the BAP.
Phage ELISA assays used to assess peptide binding to wild-type and mutant b-βγ were performed according to standard methods (Smrcka and Scott (2002) Methods Enzymol. 344:557-76). Briefly, 1 μg streptavidin was immobilized in the well of a […] overnight at 4° C. The wells were blocked with 100 μL of 2% bovine serum albumin (BSA) in Tris-buffered saline (TBS) for 1 hour at 4° C. followed by three washes of 1×TBS/0.5% TWEEN®. […] The wells were washed, followed by the addition of 1×10^6 to 1×10^10 phage particles and incubated at 4° C. for 3 hours. The wells were then washed six times with TBS/0.5% TWEEN® followed by addition of 40 μL of 1:5000 dilution of anti-M13 antibody (Pharmacia, Uppsala, Sweden) and incubated at room temperature for 1 hour. The wells were washed, followed by the addition of 40 μL of (2,2′-Azino-bis(3-ethylbenzthiazoline)-6-sulfonic acid (ABTS) and the colorimetric reaction was monitored at 405 nm. Non-specific binding was subtracted for each reading.
A phage ELISA assay was used to determine whether small molecules identified in the computational screen could interact with the Gβγ protein interaction surface. […] The screen was based on a reduction in the optical density (OD) of wells containing Gβγ subunits and phage. […] Three background wells contained no βγ subunits.
As disclosed herein, biotinylated Gβγ subunits were immobilized on the surface of a 96-well plate coated with streptavidin, phage displaying Gβγ-binding peptides were subsequently added and binding in the presence and absence of test compounds detected with an anti-phage antibody.

[3] = system: PLC-β2; assay: Purified PLC-β2 activation by purified βγ (FIG. 6); assay type: biochemical; settings: purified PLC-β2 with purified βγ
Experimental: (§1) FIG. 6 is a bar graph illustrating inhibition of PLC-β2 and PLC-β3 activation in the presence of exemplary compounds of the instant invention.
(§2) The ability of NSC119910 analogs to selectively modulate activation PLC-β2 and -β3 was analyzed. In this assay, PLC-β2 and PLC-β3 were purified and PLC enzymatic activity was measured in the presence or absence of purified βγ and in the presence or absence of analog.

[4] = target: T2, Fαi1·b-Gβ1γ2 heterotrimer (Rattus norvegicus, UniProt P54311); assay: Flow cytometry dissociation of Fαi1 from preformed heterotrimer with b-Gβ1γ2; assay type: binding; settings: peptide added to preformed Fαi1·b-Gβ1γ2
T2 construct: made in house; host or cells: Sf9 insect cells (baculovirus) for b-Gβ1γ2
Experimental: (§3) Fluorescein-labeled Gαi1 (Fαi1) was prepared in accordance with standard methods (Sarvazyan, et al. (1998) supra). Assays were used to determine peptide effects on Gα-Gβγ interactions included competition and dissociation assays (Ghosh, et al. (2003) supra). Briefly, for competition-based assays, 100 pM Fαi1 and indicated concentrations of peptides were added to 50 pM b-Gβ1γ2 immobilized on 10^5 beads per mL and incubated at room temperature for 30 minutes to reach equilibrium. The bead-associated fluorescence was then recorded in a BD Biosciences FACSCALIBUR™ flow cytometer. Data was corrected for background fluorescence and fit with a sigmoid dose response curve using Graph Pad Prism 4. To measure dissociation of Fαi1 from b-Gβ1γ2, 100 pM of Fαi1 was incubated with 50 pM immobilized b-Gβ1γ2 at room temperature for 15-20 minutes. The fluorescence of bound Fαi1 subunit was measured, followed by the addition of a 200-fold excess of unlabeled Gαi1 or peptides and the amount of Fαi1 remaining bound to the beads was measured at the indicated times.

[5] = system: Mice; assay: 55° C. warm-water tail-flick test, intracerebroventricular injection; assay type: in vivo; settings: 100 nmol NSC119910 i.c.v. with morphine
Experimental: Opioid receptors, μ, Δ, and κ, couple to Gi and Go proteins through α and βγ subunits, and regulate a number of signaling pathways. […] Mice were tested 20 minutes after the injection for an analgesic response in a 55° C. warm-water tail-flick test (Wells, et al. (2001) J. Pharmacol. Exp. Therapeut. 297:597-605).

[6] = target: Gβγ subunits (Rattus norvegicus, UniProt P54311); assay: Gα subunit-Gβγ interaction (FIG. 2); assay type: binding
Experimental: FIG. 2 is a graph illustrating that NSC119910 binds to Gβγ and interferes with physiologically relevant protein interactions such as with the Gα subunit.
as §3

[7] = system: PLC β; assay: Phospholipase C-Gβγ interaction, PLC enzymatic activity (FIG. 3); assay type: biochemical; settings: in vitro
Experimental: FIG. 3 is a graph illustrating the inhibition of phospholipase C-Gβγ interactions by NSC119910. Phospholipase enzymatic activity was determined using well-established methods (Ghosh and Smrcka (2003) Meth. Mol. Biol. 237:67-75).

[8] = system: differentiated HL-60 neutrophil; assay: Cytosolic Ca2+ in agonist-activated neutrophils (fura-2); assay type: cell-based
Experimental: FIG. 4 is a bar graph depicting the peak cytosolic Ca^2+ concentrations for neutrophils activated with fMLP or ATP agonists in the presence or absence of 10 μM NSC119910. fMLP, n=3; ATP, n=2.
Gβγ-regulated activities of PI3Kγ and PLC-β2/-β3 are important in chemoattractant-induced responses and inflammation. PI3Kγ is involved in the production of TI-IgλL and mice deficient in PI3Kγ, lack neutrophil migration (Li, et al, (2000) Science 287:1046-9). The PLC pathway is involved in down-modulation of chemotaxis and in hyperinflammatory conditions (Li, et al. (2000) supra). Therefore, it was determined whether NSC119910 could inhibit the Gβγ/PLC interaction and block PLC activation.
Ca^2+ fluxes were measured using two 35 mL cultures of differentiated HL-60 neutrophil cultures (0.2×10^6 cells/mL). Cells were cultured for three days with in DMSO (1.2%), washed in HSS and resuspended in 2 mL HBSS at a concentration of 7×10^6 cells/mL. Addition of DMSO to the growth medium induces differentiation of these cells into morphologically and functionally mature neutrophils (Collins, et al. (1978) Proc. Natl. Acad. Sci. USA 75:2458; Collins, et al., (1979) J. Exp. Med. 149:969). Neutrophils were preloaded with fura-2 (1 μM), a fluorescent Ca^2+-sensitive indicator (Suh, et al., (1996) J. Biol. Chem. 271:32753), for 45 minutes, washed with HBSS and resuspended in 2 mL of indicator-free HBSS. An 140 μL aliquote of cells was added to a total of 2 mL HBSS. Fluorescence ratios were taken by dual excitation at 340 and 380 nm and emission at 510 nm. After a stable baseline was established, either DMSO or NSC119910 was added and incubated for 5 minutes. Subsequently, either fMLP or ATP agonists were added to activate release of Ca^2+ from intracellular stores.

[9] = system: PLC-β3; assay: Purified PLC-β3 activation by purified βγ (FIG. 6); assay type: biochemical; settings: purified PLC-β3 with purified βγ
Experimental: as §1, §2

[10] = system: PLC β2; settings: cited from earlier work
[11] = system: type I adenylyl cyclase; settings: cited from earlier work
[12] = system: voltage-gated N-type Ca++ channel; settings: cited from earlier work
[13] = system: PI3K; settings: cited from earlier work

O=C(O)C1CC2C3(Cl)C(Cl)=C(Cl)C(Cl)C2(CC1c1c2ccc(=O)c(O)c-2oc2c(O)c(O)ccc12)C3(Cl)Cl (stereo not shown) [NSC158110]
fMLP-dependent ERK activation [1]: do not interfere

O=C1c2ccccc2C(=O)c2c(Nc3cc4c5c(ccc6c7ccc8c9c(cc(Nc%10cccc%11c%10C(=O)c%10ccccc%10C%11=O)c(c3c56)c97)-c3ccccc3C8=O)C(=O)c3ccccc3-4)cccc21 [NSC23128]
IC50 ([2]; read-out: IC50): 16 µM

CCc1cc2c(c3ccc(C(=O)CBr)cc13)CCCC2 [NSC30820]
IC50 ([2]; read-out: IC50): 0.1 µM

O=C(O)/C=C/c1c2ccc(=O)c(O)c-2oc2c(O)c(O)ccc12 [NSC119911]
fMLP-dependent ERK activation [1]: do not interfere | PLC-β2 activation [3]: block PLC-β2 activation more effectively than PLC-β3 activation

CC[C@H](C)[C@H](NC(=O)[C@H](CC(N)=O)NC(=O)[C@H](CC(C)C)NC(=O)[C@H](C)NC(=O)[C@H](C)NC(=O)[C@H](CCCNC(=N)N)NC(=O)[C@@H](NC(=O)[C@@H](N)CO)[C@@H](C)CC)C(=O)N[C@@H](CC(C)C)C(=O)NCC(=O)N[C@@H](Cc1ccc(O)cc1)C(=O)N1CCC[C@H]1C(=O)N[C@@H](CC(=O)O)C(=O)N[C@@H](Cc1ccc(O)cc1)C(=O)N[C@@H](CC(=O)O)C(=O)O [SIRK(Lys4Ala)]
dissociation of a preformed heterotrimer [4]: failed to accelerate heterotrimer dissociation

Nc1c(S(=O)(=O)O)cc(Nc2cccc(S(N)(=O)=O)c2)c2c1C(=O)c1ccccc1C2=O [NSC117079]
IC50 ([2]; read-out: IC50): 43 µM

C[C@H](NC(=O)[C@H](CS)NC(=O)[C@@H](N)CO)C(=O)N[C@@H](CCCNC(=N)N)C(=O)N[C@@H](Cc1ccccc1)C(=O)N[C@@H](Cc1ccccc1)C(=O)NCC(=O)N[C@H](C(=O)N1CCC[C@H]1C(=O)NCC(=O)N[C@@H](CS)C(=O)N[C@H](C(=O)O)[C@@H](C)O)[C@@H](C)O [SCAR]
dissociation of a preformed heterotrimer [4]: could not promote dissociation

O=C(O)C1CCCCC1c1c2ccc(=O)c(O)c-2oc2c(O)c(O)ccc12 (stereo not shown) [NSC119910]
shift to the left in morphine dose-response curve [5]: 11 fold | fMLP-dependent ERK activation [1]: without interfering | interactions of Gα subunit with Gβγ subunits [6]: blocked | PLC β-Gβγ interaction, enzymatic activity of PLC β [7]: inhibited | Ca2+ mobilization [8]: block | time taken for fluorescence to decline to half-peak values ([8]; 10 μM compound, fMLP or ATP (FIG. 5)): not substantially affected | increase in [Ca2+] ([8]; ATP-stimulated neutrophils, 10 μM compound): not significantly suppressed | increase in cytosolic Ca2+ ([8]; fMLP-stimulated neutrophils, 10 μM compound): suppressed | IC50 [2]: 0.1 µM

Ic1ccc2c(c1)N(c1ccccc1)c1cc(Nc3ccc4nc5ccc(I)cc5[n+](-c5ccccc5)c4c3)ccc1N2 [NSC402959]
IC50 ([2]; read-out: IC50): 2 µM

N[C@H]1CCc2cc(O)c(O)c(O)c2-c2ccc(O)c(=O)cc21 [NSC201400]
fMLP-dependent ERK activation [1]: do not interfere | PLC-β3 activation [9]: selectively potentiated | IC50 ([2]; read-out: IC50): 0.1 µM

Nc1ccc(-c2ccc(Nc3cc(S(=O)(=O)O)c(N)c4c3C(=O)c3ccccc3C4=O)cc2)c(S(=O)(=O)O)c1 [NSC125910]
IC50 ([2]; read-out: IC50): 68 µM

CC[C@H](C)[C@H](NC(=O)[C@H](CC(N)=O)NC(=O)[C@H](CC(C)C)NC(=O)[C@H](C)NC(=O)[C@H](CCCCN)NC(=O)[C@H](CCCNC(=N)N)NC(=O)[C@@H](NC(=O)[C@@H](N)CO)[C@@H](C)CC)C(=O)N[C@@H](CC(C)C)C(=O)NCC(=O)N[C@@H](Cc1ccc(O)cc1)C(=O)N1CCC[C@H]1C(=O)N[C@@H](CC(=O)O)C(=O)N[C@@H](Cc1ccc(O)cc1)C(=O)N[C@@H](CC(=O)O)C(=O)O [SIRK]
IC50 ([10]; read-out: IC50 for inhibition of PLC β2 activation by Gβ1γ2): 5 µM | Gβ1γ2 regulation of type I adenylyl cyclase [11]: little or no effect | Gβ1γ2 regulation of voltage-gated N-type Ca++ channel activity [12]: little or no effect | dissociation of a preformed heterotrimer [4]: promotes dissociation | activation of PI3K [13]: blocked

SIRKALNILAYPDYD [SIRK(Gly10Ala)]
change of IC50 relative to wild-type SIRK peptide ([10]; inhibition of PLC β2 activation by Gβ1γ2): 12 fold | dissociation of a preformed heterotrimer [4]: could still accelerate heterotrimer dissociation

O=C(O)c1cccc2cccc(-c3c4ccc(=O)c(O)c-4oc4c(O)c(O)ccc34)c12 [NSC119893]
fMLP-dependent ERK activation [1]: without interfering | Ca2+ mobilization [8]: block
